Some test systems named below: LOX IMVI melanoma; EKVX NSCLC; P388 leukemia; DMS 273 small cell lung; HOP-92 NSCLC; UO-31 renal; DMS 114 small cell lung; OVCAR-4 ovarian; SN12K1 renal; DLD-1 colon; SK-MEL-28 melanoma; M19-MEL melanoma; COLO 205 colon.
Assay in all cases: NCI tumour cell line growth inhibition, 48 h

The structures appear in SMILES notation.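 Growth conditions: 96-well plates. Treatment: test compound, 48 hours, 5 concentrations. Analysis: linear interpolation between bracketing concentrations; unreached endpoints set to highest concentration. The concentration for 50% growth inhibition is given as GI50. TGI marks complete inhibition of growth.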

With `NC1(C(=O)O)CCCC1`, the TGI with LOX IMVI melanoma, in the assay with EKVX NSCLC, with P388 leukemia, in the assay on DMS 273 small cell lung, in the assay with HOP-92 NSCLC and in the assay with UO-31 renal was above 625 µM each time. Besides, the TGI in the assay with DMS 114 small cell lung, in the assay on OVCAR-4 ovarian, in the assay on SN12K1 renal, in the assay with DLD-1 colon, with SK-MEL-28 melanoma and with M19-MEL melanoma was above 625 µM in each case. The TGI with COLO 205 colon was above 625 µM.

For `CCN(CC)CCCC(C)NC(=O)c1ccc2c(c1)C(=O)c1ccccc1C2=O` (stereo not drawn), the TGI amounted to 39.6 µM in the assay on LOX IMVI melanoma; 55.8 µM in the assay with EKVX NSCLC; 46.2 µM in the assay with DMS 273 small cell lung; 63.7 µM in the assay with HOP-92 NSCLC; 69 µM with UO-31 renal; 20 µM in the assay with DMS 114 small cell lung. The TGI in the assay on OVCAR-4 ovarian was determined as 30.4 µM; in the assay on DLD-1 colon, 45.4 µM; in the assay with SK-MEL-28 melanoma it was 29.8 µM; in the assay on M19-MEL melanoma it was 32 µM; with COLO 205 colon it was 23.3 µM.

Turning to `O=C1c2ccccc2C(=O)c2c(O)ccc(O)c21`, the TGI with LOX IMVI melanoma, in the assay with EKVX NSCLC, in the assay on DMS 273 small cell lung, in the assay on HOP-92 NSCLC, with UO-31 renal and with DMS 114 small cell lung was above 100 µM in each case. The TGI was above 100 µM in the assay with OVCAR-4 ovarian; above 100 µM with DLD-1 colon; above 100 µM with SK-MEL-28 melanoma; 69.2 µM with M19-MEL melanoma; above 100 µM in the assay on COLO 205 colon.

As to `CCCCCCC(C)OC(=O)/C=C(\CC(=O)OC(C)CCCCCC)C(=O)OC(C)CCCCCC` (stereo not drawn), the TGI with LOX IMVI melanoma, in the assay with EKVX NSCLC, with DMS 273 small cell lung, in the assay with HOP-92 NSCLC, with UO-31 renal and in the assay with DMS 114 small cell lung was above 100 µM throughout. Moreover, the TGI in the assay on OVCAR-4 ovarian, with DLD-1 colon, in the assay with SK-MEL-28 melanoma, in the assay on M19-MEL melanoma and in the assay on COLO 205 colon was above 100 µM in each case.

As to `C=C1C(=O)O[C@@H]2[C@H](O)[C@@H](C)[C@@H]3C=CC(=O)[C@@]3(C)[C@H](OC(=O)C=C(C)C)[C@H]12`, the TGI with LOX IMVI melanoma is 2.25 µM; with EKVX NSCLC it was 5.5 µM; in the assay with P388 leukemia, 0.483 µM; in the assay with DMS 273 small cell lung it was 3.24 µM; with HOP-92 NSCLC, 2.21 µM; in the assay on UO-31 renal it was 7.23 µM. The TGI in the assay on DMS 114 small cell lung was 6.57 µM; with OVCAR-4 ovarian, 4.92 µM; in the assay with SN12K1 renal, 1.75 µM; in the assay on DLD-1 colon, 0.878 µM; in the assay with SK-MEL-28 melanoma it was 1.81 µM; with M19-MEL melanoma, 2.7 µM. This compound also had a TGI in the assay on COLO 205 colon of 1.67 µM.

With `CCCCCCCCCCCCCCCCCCOCC(COP(=O)([O-])OCC[N+](C)(C)C)OC` (stereo not drawn), the TGI in the assay with LOX IMVI melanoma was 45 µM; in the assay with EKVX NSCLC, 70.3 µM; in the assay with P388 leukemia, 11 µM; with DMS 273 small cell lung, 10.5 µM; in the assay with HOP-92 NSCLC, 25.4 µM; in the assay on UO-31 renal, 52.7 µM. Besides, the TGI was 26.8 µM with DMS 114 small cell lung; above 52.6 µM in the assay with OVCAR-4 ovarian; 24.3 µM in the assay with SN12K1 renal; 17.7 µM with DLD-1 colon; 57.9 µM in the assay on SK-MEL-28 melanoma; 16.8 µM in the assay on M19-MEL melanoma. Further, the TGI in the assay with COLO 205 colon was determined as 21.2 µM.

As to `Oc1ccc(C#CCOc2ccccc2)cc1CNCCN(Cc1ccccn1)Cc1ccccn1`, the GI50 in the assay with LOX IMVI melanoma is 1250 nM; with EKVX NSCLC, 1240 nM; in the assay with HOP-92 NSCLC, 1570 nM; in the assay with UO-31 renal it was 1020 nM; in the assay on OVCAR-4 ovarian, 1290 nM; with SK-MEL-28 melanoma, 2040 nM. For the same compound, the GI50 in the assay on COLO 205 colon was 2800 nM. Also, the TGI in the assay with LOX IMVI melanoma turned out to be 2.79 µM; in the assay with EKVX NSCLC, 3.33 µM; in the assay on HOP-92 NSCLC, 4.1 µM; in the assay on UO-31 renal, 2.5 µM; with OVCAR-4 ovarian it was 3.71 µM; with SK-MEL-28 melanoma, 5.91 µM. The compound also had a TGI with COLO 205 colon of 9.74 µM.

`N#Cc1nc(CCC(c2nc(C#N)c(N)o2)N2C(=O)c3ccccc3C2=O)oc1N` (stereo not drawn): the TGI in the assay on LOX IMVI melanoma, in the assay with EKVX NSCLC, with HOP-92 NSCLC, with UO-31 renal, with OVCAR-4 ovarian and with SK-MEL-28 melanoma was above 100 µM each time. The TGI with COLO 205 colon was above 100 µM.

Source of the values: PubChem BioAssay (NCI).
